Measurements from patent US6818391B2, “Glutamate transporters” (The Regents of the University of California, priority 2000, dated 2004).
Several values for one entry are separate records, joined by “and”; a condition that tells them apart may be missing. Equal entries are not always repeated.

Legend:
[1] = test system: untransfected PC12 cell membranes; assay: background 3H-glutamate uptake by membranes from untransfected PC12 cells; format: biochemical, rat; conditions: uptake at 5 min
Protocol: To initiate the transport reaction, we added 10 μl of membranes to 190 μl of SH buffer containing 4 mM KCl, 4 mM MgSO4, 4 mM ATP, and 50 μM 3H-glutamate, with other additions noted in the text and figure legends. […] Background uptake was determined using membranes prepared from untransfected cells that were incubated for the same amount of time at the same temperature. Transport measurements were performed in duplicate with at least two different preparations of membranes. The Km was calculated by averaging the results of two separate determinations.

[2] = test system: untransfected PC12 cell membranes; assay: acridine orange fluorescence quenching of untransfected cell membranes; format: biochemical, rat; conditions: 10 mM glutamate
Protocol: Native synaptic vesicles acidify during glutamate uptake (Maycox et al. (1988) J. Biol. Chem., 263: 15423). Glutamate presumably serves as a counterion for protons and dissipates ΔΨ, enabling the vacuolar H+-ATPase to generate a larger ΔpH, but cotransport of H+ with glutamate remains an alternative possibility. To determine whether acidification also accompanies glutamate transport by BNPI, we used the quenching of acridine orange fluorescence to measure vesicle pH. Membranes (200 μg of protein) were diluted into 2 ml of 0.3 M sucrose and 10 mM tris-Mops (pH 7.4) containing 4 mM MgSO4 and 5 μM acridine orange and incubated at 37° C. with continuous stirring. Fluorescence was monitored with a Hitachi F4500 spectrofluorimeter at an excitation wavelength of 492 nm and emission of 530 nm. Separate measurements were made with at least three different membrane preparations for wild-type and transfected cells; representative tracings are shown in FIG. 5.

synaptic vesicles = conditions: read-out: Km of vesicular glutamate transport; cited from earlier work
DNPI/VGLUT2 = biological target: T1, DNPI/VGLUT2 (Rattus norvegicus, UniProt Q9JI12); assay: 3H-L-glutamate uptake by membranes from PC12 cells expressing DNPI/VGLUT2; format: biochemical
T1 construct: To reconstruct the full open reading frame, the missing segment was amplified from rat brain cDNA by PCR; expressed in transfected cells; light membranes prepared from them
T1 sequence (Q9JI12 1-582): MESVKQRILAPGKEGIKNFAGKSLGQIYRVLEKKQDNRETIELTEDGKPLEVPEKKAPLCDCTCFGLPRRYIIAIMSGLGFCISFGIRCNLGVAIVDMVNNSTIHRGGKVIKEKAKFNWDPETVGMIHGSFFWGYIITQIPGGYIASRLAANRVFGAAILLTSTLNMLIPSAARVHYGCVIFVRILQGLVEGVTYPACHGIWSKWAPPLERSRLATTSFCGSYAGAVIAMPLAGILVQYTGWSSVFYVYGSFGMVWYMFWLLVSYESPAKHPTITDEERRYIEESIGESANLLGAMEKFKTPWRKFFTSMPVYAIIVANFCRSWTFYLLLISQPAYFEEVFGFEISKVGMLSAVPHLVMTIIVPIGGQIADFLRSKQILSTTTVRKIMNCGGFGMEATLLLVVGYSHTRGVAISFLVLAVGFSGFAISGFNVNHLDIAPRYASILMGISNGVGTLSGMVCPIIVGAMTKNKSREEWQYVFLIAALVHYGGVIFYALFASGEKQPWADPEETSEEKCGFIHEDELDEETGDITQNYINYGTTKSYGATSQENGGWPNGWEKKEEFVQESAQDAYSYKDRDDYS
Protocol: PC12 cells were grown in Dulbecco's modified Eagle's medium containing 10% equine serum, 5% calf serum and transfected by electroporation with the rat DNPI/VGLUT2 cDNA subcloned in the pcDNA3 vector containing an […] (Krantz et al. (2000) J. Cell Biol. 149). Stable transformants were selected for resistance to the neomycin analog G418 (500 μg/ml) and screened by immunofluorescence with the DNPI antibody, resulting in the identification of two independent clones with more than 80% of the cells expressing DNPI.
For membrane preparation, untransfected and DNPI-expressing PC12 cells were grown on 15 cm plates, washed with calcium- and magnesium-free PBS, collected in 0.32 M sucrose/10 mM HEPES-KOH, pH 7.4 (SH buffer) containing protease inhibitors (2 μg/ml leupeptin, 1 μg/ml pepstatin, 1 μg/ml E64, 0.2 mM diisopropylfluorphosphate, 2 μg/ml aprotinin, and 1.25 mM MgEGTA), homogenized using a ball bearing device and the homogenate sedimented at 1000 g for 5 min to remove nuclei and debris. The supernatant was then sedimented at 27,000 g for 35 min to remove heavier membranes. The remaining light membranes including small synaptic-like microvesicles were then sedimented at 210,000 g for 1 hour. The pellet was resuspended in SH buffer with protease inhibitors at ˜10 mg protein/ml.
To initiate the transport reaction, 20 μl membranes (˜200 μg protein) were added to 180 μl SH buffer containing 4 mM KCl, 4 mM MgSO4, […], and 100 μM ^3H-L-glutamate, with other additions noted in the text and figure legends. The reaction mixture was incubated at 29° C. for varying intervals, uptake was terminated by rapid filtration through Supor-200 membranes (Gelman) and the filters were washed rapidly four times with 1.5 ml cold 0.155 M potassium tartrate/10 mm HEPES-KOH, pH 7.4 before measuring the bound radioactivity by scintillation counting in 3 ml Cytoscint (ICN). Uptake specifically mediated by DNPI/VGLUT2 was determined by subtracting the background uptake of untransfected cell membranes from the uptake by transfected cell membranes. To examine the chloride dependence of transport, varying proportions of 0.14 M K gluconate and 0.14 M KCl were mixed in the standard reaction buffer (without sucrose) to vary the chloride concentration and maintain constant osmolarity. The ionophores nigericin and valinomycin used in FIG. 13E were prepared as 200× stock solutions in ethanol. The final ethanol concentration in the reaction mixture was 1%.

SMILES | effect on background glutamate uptake by untransfected cell membranes [1] | effect on acidification produced by chloride in nontransfected cell membranes [2] | Km (synaptic vesicles) [mM] | inhibition of DNPI-mediated 3H-L-glutamate uptake (DNPI/VGLUT2; 10 mM, uptake at 5 minutes) | Km (DNPI/VGLUT2; initial rate at 1 minute, 0.03-10 mM L-glutamate, Lineweaver-Burke) | specific 3H-L-glutamate uptake by DNPI at high chloride (DNPI/VGLUT2; 140 mM chloride) | chloride concentration for maximal 3H-L-glutamate uptake by DNPI (DNPI/VGLUT2; uptake at 5 minutes)
N[C@@H](CCC(=O)O)C(=O)O [L-Glutamate] | had little effect | had no effect | ~1 | markedly inhibits | 4.7 mM and ~5 mM |  | 
Cl [chloride] |  |  |  |  |  | little or no specific uptake is detectable | 2 to 10 mM and ~2 mM
